Reference: PubChem BioAssay (NCI)
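96-well plates; 48 h exposure; 5 concentrations. Endpoints by linear interpolation between flanking doses. Not reached: highest tested concentration assigned. Abbreviation: GI50, concentration required for 50% inhibition of growth. TGI: total growth inhibition.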

How the values were obtained:
Test in all cases: NCI tumour cell line growth inhibition, 48 h
[1] = tested on: NCI-H226 lung
[2] = tested on: HOP-62 NSCLC
[3] = tested on: RPMI-8226 leukemia
[4] = tested on: SK-OV-3 ovarian
[5] = tested on: MALME-3M melanoma
[6] = tested on: SF-268 CNS
[7] = tested on: UO-31 renal
[8] = tested on: CCRF-CEM leukemia
[9] = tested on: U251 CNS
[10] = tested on: OVCAR-8 ovarian
[11] = tested on: SF-295 CNS
[12] = tested on: SW-620 colon
[13] = tested on: PC-3 prostate
[14] = tested on: HL-60(TB) leukemia
[15] = tested on: SF-539 CNS
[16] = tested on: HT29 colon
[17] = tested on: T-47D breast
[18] = tested on: SN12C renal
[19] = tested on: NCI-H23 lung
[20] = tested on: HCT-15 colon
[21] = tested on: M14 melanoma
[22] = tested on: MCF7 breast
[23] = tested on: SK-MEL-28 melanoma
[24] = tested on: SK-MEL-2 melanoma
[25] = tested on: 786-0 renal
[26] = tested on: MDA-MB-435
[27] = tested on: OVCAR-4 ovarian
[28] = tested on: LOX IMVI melanoma
[29] = tested on: TK-10 renal
[30] = tested on: HCT-116 colon
[31] = tested on: OVCAR-3 ovarian
[32] = tested on: A498 renal
[33] = tested on: ACHN renal
[34] = tested on: MDA-MB-231 breast
[35] = tested on: HOP-92 NSCLC
[36] = tested on: SNB-75 CNS
[37] = tested on: NCI/ADR-RES ovarian
[38] = tested on: IGROV1 ovarian
[39] = tested on: UACC-257 melanoma
[40] = tested on: UACC-62 melanoma
[41] = tested on: EKVX NSCLC
[42] = tested on: SR leukemia
[43] = tested on: NCI-H522 lung
[44] = tested on: RXF 393 renal
[45] = tested on: OVCAR-5 ovarian
[46] = tested on: K-562 leukemia
[47] = tested on: BT-549 breast
[48] = tested on: DU-145 prostate
[49] = tested on: CAKI-1 renal
[50] = tested on: A549 NSCLC
[51] = tested on: HS 578T breast
[52] = tested on: NCI-H460 lung
[53] = tested on: MOLT-4 leukemia
[54] = tested on: HCC-2998 colon
[55] = tested on: SNB-19 CNS
[56] = tested on: COLO 205 colon
[57] = tested on: SK-MEL-5 melanoma
[58] = tested on: KM12 colon

CC(C)CCC[C@@H](C)[C@H]1CC[C@H]2[C@@H]3CC=C4C[C@@H](C(C(=O)O)C(=O)O)CC[C@]4(C)[C@H]3CC[C@]12C
GI50 [1]: 209 nM | TGI [1]: 622 nM | GI50 [2]: 176 nM | TGI [2]: 747 nM | GI50 [3]: 353 nM | TGI [3]: 938 nM | GI50 [4]: 298 nM | TGI [4]: 3.15 µM | GI50 [5]: 134 nM | TGI [5]: 502 nM | GI50 [6]: 157 nM | TGI [6]: 1650 nM | GI50 [7]: 137 nM | TGI [7]: 467 nM | GI50 [8]: 112 nM | TGI [8]: 913 nM | GI50 [9]: 129 nM | TGI [9]: 408 nM | GI50 [10]: 158 nM | TGI [10]: 807 nM | GI50 [11]: 64.3 nM | TGI [11]: 153 nM | GI50 [12]: 156 nM | TGI [12]: 1250 nM | GI50 [13]: 177 nM | TGI [13]: 2190 nM | GI50 [14]: 252 nM | TGI [14]: 1480 nM | GI50 [15]: 107 nM | TGI [15]: 407 nM | GI50 [16]: 224 nM | TGI [16]: 1060 nM | GI50 [17]: 188 nM | TGI [17]: 2800 nM | GI50 [18]: 137 nM | TGI [18]: 457 nM | GI50 [19]: 147 nM | TGI [19]: 630 nM | GI50 [20]: 148 nM | TGI [20]: 612 nM | GI50 [21]: 186 nM | TGI [21]: 1760 nM | GI50 [22]: 386 nM | TGI [22]: 5.37 µM | GI50 [23]: 143 nM | TGI [23]: 469 nM | GI50 [24]: 224 nM | TGI [24]: 613 nM | GI50 [25]: 288 nM | TGI [25]: 2510 nM | GI50 [26]: 72.1 nM | TGI [26]: 188 nM | GI50 [27]: 207 nM | TGI [27]: 4.35 µM | GI50 [28]: 139 nM | TGI [28]: 468 nM | GI50 [29]: 165 nM | TGI [29]: 632 nM | GI50 [30]: 101 nM | TGI [30]: 798 nM | GI50 [31]: 121 nM | TGI [31]: 298 nM | GI50 [32]: 86.2 nM | TGI [32]: 216 nM | GI50 [33]: 150 nM | TGI [33]: 662 nM | GI50 [34]: 214 nM | TGI [34]: 838 nM | GI50 [35]: 307 nM | TGI [35]: 904 nM | GI50 [36]: 166 nM | TGI [36]: 1470 nM | GI50 [37]: 220 nM | TGI [37]: 6 µM | GI50 [38]: 166 nM | TGI [38]: 1120 nM | GI50 [39]: 133 nM | TGI [39]: 639 nM | GI50 [40]: 76.4 nM | TGI [40]: 187 nM | GI50 [41]: 78.6 nM | TGI [41]: 245 nM | GI50 [42]: 135 nM | TGI [42]: 1630 nM | GI50 [43]: 153 nM | TGI [43]: 527 nM | GI50 [44]: 192 nM | TGI [44]: 662 nM | GI50 [45]: 198 nM | TGI [45]: 5.56 µM | GI50 [46]: 144 nM | TGI [46]: 2000 nM | GI50 [47]: 197 nM | TGI [47]: 2210 nM | GI50 [48]: 115 nM | TGI [48]: 274 nM | GI50 [49]: 76 nM | TGI [49]: 199 nM | GI50 [50]: 145 nM | TGI [50]: 547 nM | GI50 [51]: 242 nM | TGI [51]: 2580 nM | GI50 [52]: 160 nM | TGI [52]: 497 nM | GI50 [53]: 248 nM | TGI [53]: 2050 nM | GI50 [54]: 185 nM | TGI [54]: 1280 nM | GI50 [55]: 237 nM | TGI [55]: 8.91 µM | GI50 [56]: 111 nM | TGI [56]: 247 nM | GI50 [57]: 113 nM | TGI [57]: 266 nM | GI50 [58]: 117 nM | TGI [58]: 292 nM
